Test results reported in PMC13453949 (Journal of Advanced Research, 2025).
Converted amounts (≈) assume the structure as drawn. “Also recorded” adds a separate entry of the source. Where two headings read alike, the source gives them in different places.

Columns and labels:
C. albicans [1] = experiment: Antifungal activity test of the 17 candidate compounds against C. albicans; assay type: cell-based, Candida albicans; details: tested at 12 h, 24 h and 36 h
C. albicans [2] = experiment: microbe, parasite or virus in culture; assay type: cell-based, Candida albicans; details: for MIC: Candida albicans, read-out: Minimum inhibitory concentration (MIC); for Fungal recovery after treatment: after 36 h of treatment
C. albicans [3] = assay type: cell-based, Candida albicans; details: α-hederin 32 μg/mL; vs untreated control (CK)
C. albicans biofilm = experiment: Biofilm formation, total biofilm biomass by crystal violet staining; assay type: cell-based; details: Candida albicans, 24 h, read-out: Inhibition of early biofilm formation
[4] = system: C. albicans mature biofilm; experiment: Mature biofilm, metabolic activity by XTT reduction; assay type: cell-based; details: Candida albicans, 24 h, read-out: Inhibition rate of mature biofilms
[5] = system: C. albicans hyphal formation; assay type: cell-based, Candida albicans; details: RPMI-1640 + 10 % FBS, 24 h
[6] = system: ergosterol content in C. albicans; experiment: Ergosterol content determination; assay type: cell-based, Candida albicans; details: 16 μL/mL, compared to untreated control (CK)
C. albicans [7] = experiment: Checkerboard dilution, fractional inhibitory concentration index; assay type: cell-based, Candida albicans
C. albicans [8] = experiment: Murine oral candidiasis model; assay type: in vivo, BALB/c mice; details: for Hemoglobin (HGB) level / Platelet (PLT) counts / White blood cell count (WBC): relative to Can group
293 T cells = details: 24 h; for Cell survival rate: 128 μg/mL (highest tested)
Raw264.7 cells = details: 24 h; for Cell survival rate: 128 μg/mL (highest tested)
[9] = system: KB (human oral epidermoid carcinoma cells); details: 24 h; for Cell survival rate: 128 μg/mL (highest tested)
[10] = system: C. albicans cell surface hydrophobicity; assay type: cell-based, Candida albicans; details: 128 μg/mL
[11] = threshold concentration 1024 μg/mL

Evodiamine
Anti − C. albicans activity (C. albicans [1]; [11]): >1024 µg/mL

Triptofordin
Anti − C. albicans activity (C. albicans [1]; [11]): >1024 µg/mL

CC(C)=CCC[C@](C)(O[C@@H]1O[C@H](CO[C@@H]2O[C@@H](CO)[C@H](O)[C@H]2O[C@@H]2OC[C@@H](O)[C@H](O)[C@H]2O)[C@@H](O)[C@H](O)[C@H]1O)[C@H]1CC[C@]2(C)[C@@H]1[C@H](O)C[C@@H]1[C@@]3(C)CC[C@H](O[C@@H]4O[C@H](CO)[C@@H](O)[C@H](O)[C@H]4O[C@@H]4O[C@H](CO)[C@@H](O)[C@H](O)[C@H]4O)C(C)(C)[C@@H]3CC[C@]12C [Ginsenoside Ra2]
Anti − C. albicans activity (C. albicans [1]; [11]): >1024 µg/mL

Oc1ccc2ccccc2c1N=Nc1ccc(N=Nc2ccccc2)cc1 [Sudam Ⅲ]
Anti − C. albicans activity (C. albicans [1]; [11]): >1024 µg/mL

C[C@]12CCC[C@@]3(COC1=O)[C@@H]1CC[C@@H]4C[C@@]1(CC[C@@H]32)C[C@@]4(C)O [Hypodiolide A]
Anti − C. albicans activity (C. albicans [1]; [11]): >1024 µg/mL

COc1cc2ccc(=O)oc2cc1O [Scopoletol]
Anti − C. albicans activity (C. albicans [1]; [11]): >1024 µg/mL

C=C(C)C(O)COc1c2occc2cc2ccc(=O)oc12 (centres unmarked) [Isogosferol]
Anti − C. albicans activity (C. albicans [1]; [11]): >1024 µg/mL

OC(Cn1cncn1)(Cn1cncn1)c1ccc(F)cc1F [Fluconazole, reference compound]
Fungal growth at highest concentration (C. albicans [2]; 128 μg/mL, after 24 h): persistent fungal growth | MIC (C. albicans [2]): > 128 mg/L | Fungal recovery after treatment (C. albicans [2]): regrowth | Internal ultrastructure (TEM) (C. albicans [3]): no comparable ultrastructural damage | inhibition at 256 µg/mL (C. albicans biofilm): 57% | inhibition at 128 µg/mL [4]: 17% | Hyphal formation ([5]; 256 μg/mL): failed to achieve complete suppression | Concentration reducing hyphal formation [5]: > 32 µg/mL | Reduction of ergosterol content [6]: 45% | Concentration in the combination showing additive effect (C. albicans [7]): 1 µg/mL | Hemoglobin (HGB) level (C. albicans [8]; 128 μg/mL): restored | Platelet (PLT) counts (C. albicans [8]; 128 μg/mL): normalized | White blood cell count (WBC) (C. albicans [8]; 128 μg/mL): restored | Body weight change (C. albicans [8]; mouse, in vivo): rebound in body weight | Cell survival rate (293 T cells): above 80% | Cell survival rate (Raw264.7 cells): above 80% | Cell survival rate [9]: above 80%

C[C@@H]1O[C@@H](O[C@H]2[C@H](O[C@H]3CC[C@@]4(C)[C@@H](CC[C@]5(C)[C@@H]4CC=C4[C@@H]6CC(C)(C)CC[C@]6(C(=O)O)CC[C@]45C)[C@]3(C)CO)OC[C@H](O)[C@@H]2O)[C@H](O)[C@H](O)[C@H]1O [α-Hederin]
Anti − C. albicans activity (C. albicans [1]; [11]): below 128 μg/mL | C. albicans growth (C. albicans [2]; 32 μg/mL): completely inhibited | MIC (C. albicans [2]): 32 mg/L (≈ 42.6 µM) | Fungal recovery after treatment (C. albicans [2]): no fungal recovery observed | Growth inhibition of C. albicans (C. albicans [2]; at concentrations above 8 μg/mL within 24 h): 50% | Internal ultrastructure (TEM) (C. albicans [3]): severe cytoplasmic content loss and vacuolization, thinning and irregularity of cell walls/membranes and membrane discontinuities | inhibition at 32 µg/mL (C. albicans biofilm): 55% | inhibition at 256 µg/mL (C. albicans biofilm): 75% | inhibition at 128 µg/mL [4]: 20% | Hyphal formation ([5]; 128 μg/mL): partial inhibition | Hyphal formation ([5]; 256 μg/mL): completely inhibit | Reduction of cell surface hydrophobicity (CSH) [10]: 85% | Reduction of ergosterol content [6]: 90% | Concentration in the combination showing additive effect (C. albicans [7]; checkerboard, fluconazole plus α-hederin): 16 µg/mL | Hemoglobin (HGB) level (C. albicans [8]; 32 μg/mL): restored | Platelet (PLT) counts (C. albicans [8]; 32 μg/mL): normalized | White blood cell count (WBC) (C. albicans [8]; 32 μg/mL): restored | C. albicans colony count on tongue (C. albicans [8]; 128 μg/mL in drinking water, 5 days (128Hed)): no colonies were detected | Hemoglobin (HGB) level (C. albicans [8]; 128 μg/mL): restored | Platelet (PLT) counts (C. albicans [8]; 128 μg/mL): normalized | White blood cell count (WBC) (C. albicans [8]; 128 μg/mL): restored | Body weight change (C. albicans [8]; mouse, in vivo): rebound in body weight; also recorded: slowest initial weight loss, followed by a consistent increase | Fungal colonization of tongue (PAS staining) (C. albicans [8]; mouse, in vivo): markedly reduced fungal colonization | Fungal load on tongue (colony counts) (C. albicans [8]; α-hederin-treated group, dose not stated): significant decrease in fungal load | Cell survival rate (293 T cells): above 80% | Cell survival rate (Raw264.7 cells): above 80% | Cell survival rate [9]: above 80%

Elemicin
Anti − C. albicans activity (C. albicans [1]): <128 μL/mL | Anti − C. albicans activity (C. albicans [1]; [11]): below 128 μg/mL | Minimum inhibitory concentration (MIC) (C. albicans [2]; C. albicans CMCC(F)98001, YEPD, 37 °C, 24 h and 36 h): 16 μL/mL | Inhibition of C. albicans growth (C. albicans [2]; at concentrations exceeding 0.5 μL/mL): 50 % −70 | Concentration with significant toxicity (293 T cells): higher than 8 μL/mL | Concentration with significant toxicity (Raw264.7 cells): higher than 8 μL/mL | Concentration with significant toxicity [9]: higher than 8 μL/mL

Strictosamide
Anti − C. albicans activity (C. albicans [1]; [11]): >1024 µg/mL
